Test results taken from US20250129104A1, “7H-PYRROLO[2,3-D]PYRIMIDINES AND PREPARATION AND USES THEREOF” (BioSplice Therapeutics, Inc., priority 2021, published 2025).
pEC50: −log10 of the molar value.

Molecular target: recombinant DYRK1A kinase (Homo sapiens (Human), UniProt Q13627)
Experiment: DYRK1A kinase assay (Ser/Thr 18 peptide Z-lyte FRET assay)
Type: biochemical
Details: DYRK1A kinase activity; 15 μM ATP, 1 h room temperature; method text calls the value IC50
How it was run: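 FRET Z-lyte read-out (coumarin/fluorescein ratio, % phosphorylation) after 1 h development; IC50 from non-linear curve fit. Reaction: 0.25 μg/mL recombinant human DYRK1A, Ser/Thr 18 peptide 4 μM, ATP 15 μM, compound in 11-point 1:3 series from 10 μM, 1 h, room temperature, duplicate wells.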

| Molecule | pEC50 |
| --- | --- |
| Fc1cc(-c2c[nH]c3nc(NCCC(F)(F)F)ncc23)cn2ccnc12 [Compound 204, 5-(8-Fluoroimidazo[1,2-a]pyridin-6-yl)-N-(3,3,3-trifluoropropyl)-7H-pyrrolo [2,3-d]pyrimidin-2-amine] | 8.18 |
| CCNc1ncc2c(-c3ccc4nccn4c3)c[nH]c2n1 [Compound 107, N-Ethyl-5-(imidazo[1,2-a]pyridin-6-yl)-7H-pyrrolo[2,3-d]pyrimidin-2-amine] | 8.80 |
| FC(F)(CNc1ncc2c(-c3ccc4ncnn4c3)c[nH]c2n1)C1CC1 [Compound 743, 5-([1,2,4]Triazolo[1,5-a]pyridin-6-yl)-N-(2-cyclopropyl-2,2-difluoroethyl)-7H-pyrrolo[2,3-d]pyrimidin-2-amine] | 8.72 |
| FC1(F)CCC(Nc2ncc3c(-c4ccn5nccc5n4)c[nH]c3n2)CC1 [Compound 1663, N-(4,4-Difluorocyclohexyl)-5-(pyrazolo[1,5-a]pyrimidin-5-yl)-7H-pyrrolo [2,3-d]pyrimidin-2-amine] | 8.04 |
| CN1CCC(Nc2ncc3c(-c4cc(F)c5nccn5c4)c[nH]c3n2)CC1 [Compound 219, 5-(8-Fluoroimidazo[1,2-a]pyridin-6-yl)-N-(1-methylpiperidin-4-yl)-7H-pyrrolo[2,3-d]pyrimidin-2-amine] | 8.26 |
| CN1CCN(c2ncnc3ccc(-c4c[nH]c5nc(N)ncc45)cc23)CC1 [Compound 1986, 5-(4-(4-Methylpiperazin-1-yl)quinazolin-6-yl)-7H-pyrrolo[2,3-d]pyrimidin-2-amine] | 7.38 |
| CN1CCN(c2cc(Nc3ncc4c(-c5ccc6c(c5)CCCO6)c[nH]c4n3)ccn2)CC1 [Compound 1768, 5-(Chroman-6-yl)-N-(2-(4-methylpiperazin-1-yl)pyridin-4-yl)-7H-pyrrolo [2,3-d]pyrimidin-2-amine] | 7.46 |
| c1cnc2ccc(-c3c[nH]c4ncnc(N[C@H]5CC[C@H](N6CCOCC6)CC5)c34)cc2c1 [Compound 1898, N-(trans-4-Morpholinocyclohexyl)-5-(quinolin-6-yl)-7H-pyrrolo[2,3-d]pyrimidin-4-amine] | 8.12 |
| CN1CCN(c2ncnc3ccc(-c4c[nH]c5nc(C6CC6)ncc45)cc23)CC1 [Compound 1987, 6-(2-Cyclopropyl-7H-pyrrolo[2,3-d]pyrimidin-5-yl)-4-(4-methylpiperazin-1-yl)quinazoline] | 7.15 |
| CC(C)Nc1ncc2c(-c3ccn4ncnc4c3)c[nH]c2n1 [Compound 804, 5-([1,2,4]Triazolo[1,5-a]pyridin-7-yl)-N-isopropyl-7H-pyrrolo[2,3-d]pyrimidin-2-amine] | 7.14 |
| C[C@@H](Nc1ncc2c(-c3ccn4ncnc4c3)c[nH]c2n1)C(F)(F)F [Compound 806, (R)-5-([1,2,4]Triazolo[1,5-a]pyridin-7-yl)-N-(1,1,1-trifluoropropan-2-yl)-7H-pyrrolo[2,3-d]pyrimidin-2-amine] | 7.73 |
| CN1CCC(Nc2ncc3c(-c4ccn5nccc5c4)c[nH]c3n2)CC1 [Compound 1146, N-(1-Methylpiperidin-4-yl)-5-(pyrazolo[1,5-a]pyridin-5-yl)-7H-pyrrolo[2,3-d]pyrimidin-2-amine] | 7.55 |
| CN1CCC(c2cnc3c(F)cc(-c4c[nH]c5nc(C6CC6)ncc45)cn23)CC1 [Compound 403, 2-Cyclopropyl-5-(8-fluoro-3-(1-methylpiperidin-4-yl)imidazo[1,2-a]pyridin-6-yl)-7H-pyrrolo[2,3-d]pyrimidine] | 6.76 |
| 5-(2-Cyclopropyl-7H-pyrrolo[2,3-d]pyrimidin-5-yl)-N-methyl-N-(tetrahydro-2H-pyran-4-yl)pyrazolo[1,5-a]pyridine-3-carboxamide [Compound 1552] | 6.71 |
| CC(C)(C)Nc1ncc2c(-c3ccc4ncnn4c3)c[nH]c2n1 [Compound 718, 5-([1,2,4]Triazolo[1,5-a]pyridin-6-yl)-N-(tert-butyl)-7H-pyrrolo[2,3-d]pyrimidin-2-amine] | 6.38 |
| CN1CCN(c2cc(Nc3ncc4c(-c5ccc6ncnn6c5)c[nH]c4n3)ccn2)CC1 [Compound 755, 5-([1,2,4]Triazolo[1,5-a]pyridin-6-yl)-N-(2-(4-methylpiperazin-1-yl)pyridin-4-yl)-7H-pyrrolo[2,3-d]pyrimidin-2-amine] | 8.35 |
| CN1CCC(Nc2ncc3c(-c4ccn5ncc(-c6cnn(C)c6)c5c4)c[nH]c3n2)CC1 [Compound 1190, 5-(3-(1-Methyl-1H-pyrazol-4-yl)pyrazolo[1,5-a]pyridin-5-yl)-N-(1-methylpiperidin-4-yl)-7H-pyrrolo[2,3-d]pyrimidin-2-amine] | 8.52 |

Continued, values first:

| pEC50 | Molecule |
| --- | --- |
| 8.18 | COc1nc(N[C@H]2CC[C@@H](OCC(F)F)CC2)nc2[nH]cc(-c3ccn4nccc4c3)c12 [Compound 2212, N-(cis-4-(2,2-Difluoroethoxy)cyclohexyl)-4-methoxy-5-(pyrazolo[1,5-a]pyridin-5-yl)-7H-pyrrolo[2,3-d]pyrimidin-2-amine] |
| 8.59 | C[C@]1(O)CC[C@@H](Nc2ncc3c(-c4ccc5nccn5n4)c[nH]c3n2)CC1 [Compound 3224, (1s,4s)-4-((5-(Imidazo[1,2-b]pyridazin-6-yl)-7H-pyrrolo[2,3-d]pyrimidin-2-yl)amino)-1-methylcyclohexan-1-ol] |
| 8.68 | COc1nc(N[C@H]2CC[C@@H](OCC(F)F)CC2)nc2[nH]cc(-c3ccc4nccn4c3)c12 [Compound 2176, N-(cis-4-(2,2-Difluoroethoxy)cyclohexyl)-5-(imidazo[1,2-a]pyridin-6-yl)-4-methoxy-7H-pyrrolo[2,3-d]pyrimidin-2-amine] |
| 8.51 | OCCO[C@H]1CC[C@@H](Nc2ncc3c(-c4cc(F)c5nccn5c4)c[nH]c3n2)CC1 [Compound 2182, 2-((cis-4-((5-(8-Fluoroimidazo[1,2-a]pyridin-6-yl)-7H-pyrrolo[2,3-d]pyrimidin-2-yl)amino)cyclohexyl)oxy)ethan-1-ol] |
| 8.66 | C[C@]1(O)CC[C@@H](Nc2ncc3c(-c4cc(F)c5nccn5c4)c[nH]c3n2)CC1 [Compound 2179, cis-4-((5-(8-Fluoroimidazo[1,2-a]pyridin-6-yl)-7H-pyrrolo[2,3-d]pyrimidin-2-yl)amino)-1-methylcyclohexan-1-ol] |
| 6.64 | COC[C@@H](C)Nc1nc(OC)c2c(-c3ccc4nccn4n3)c[nH]c2n1 [Compound 2300, (R)-5-(Imidazo[1,2-b]pyridazin-6-yl)-4-methoxy-N-(1-methoxypropan-2-yl)-7H-pyrrolo[2,3-d]pyrimidin-2-amine] |
| 8.47 | COCCO[C@H]1CC[C@@H](Nc2ncc3c(-c4ccn5nccc5c4)c[nH]c3n2)CC1 [Compound 2203, N-(cis-4-(2-Methoxyethoxy)cyclohexyl)-5-(pyrazolo[1,5-a]pyridin-5-yl)-7H-pyrrolo[2,3-d]pyrimidin-2-amine] |
| 8.62 | CCO[C@H]1CC[C@@H](Nc2ncc3c(-c4cc(F)c5nccn5c4)c[nH]c3n2)CC1 [Compound 2129, N-(cis-4-Ethoxycyclohexyl)-5-(8-fluoroimidazo[1,2-a]pyridin-6-yl)-7H-pyrrolo[2,3-d]pyrimidin-2-amine] |
| 8.25 | CO[C@H]1CC[C@H](Nc2ncc3c(-c4ccn5nccc5n4)c[nH]c3n2)CC1 [Compound 3420, N-(trans-4-Methoxycyclohexyl)-5-(pyrazolo[1,5-a]pyrimidin-5-yl)-7H-pyrrolo[2,3-d]pyrimidin-2-amine] |
| 7.89 | COc1nc(N[C@@H]2CCOC[C@H]2O)nc2[nH]cc(-c3ccn4nccc4c3)c12 [Compound 2318, (3S,4R)-4-((4-Methoxy-5-(pyrazolo[1,5-a]pyridin-5-yl)-7H-pyrrolo[2,3-d]pyrimidin-2-yl)amino)tetrahydro-2H-pyran-3-ol] |
| 8.59 | [2H]C([2H])([2H])O[C@H]1CC[C@@H](Nc2ncc3c(-c4ccn5nccc5c4)c[nH]c3n2)CC1 [Compound 2200, N-(cis-4-(Methoxy-d3)cyclohexyl)-5-(pyrazolo[1,5-a]pyridin-5-yl)-7H-pyrrolo[2,3-d]pyrimidin-2-amine] |
| 7.98 | COc1nc(N[C@H](C)C(F)(F)F)nc2[nH]cc(-c3cc(F)c4nccn4c3)c12 [Compound 2183, (R)-5-(8-Fluoroimidazo[1,2-a]pyridin-6-yl)-4-methoxy-N-(1,1,1-trifluoropropan-2-yl)-7H-pyrrolo[2,3-d]pyrimidin-2-amine] |
| 8.96 | COc1nc(N[C@H]2CC[C@](C)(O)CC2)nc2[nH]cc(-c3ccc4nccn4c3)c12 [Compound 2378, trans-4-((5-(Imidazo[1,2-a]pyridin-6-yl)-4-methoxy-7H-pyrrolo[2,3-d]pyrimidin-2-yl)amino)-1-methylcyclohexan-1-ol] |
| 8.82 | [2H]C([2H])([2H])O[C@H]1CC[C@@H](Nc2ncc3c(-c4ccc5nccn5n4)c[nH]c3n2)CC1 [Compound 2171, 5-(Imidazo[1,2-b]pyridazin-6-yl)-N-(cis-4-(methoxy-d3)cyclohexyl)-7H-pyrrolo[2,3-d]pyrimidin-2-amine] |
| 8.96 | COc1nc(NC2CCC3(CC2)COC3)nc2[nH]cc(-c3ccc4nnn(C)c4c3)c12 [Compound 3133, 4-Methoxy-5-(1-methyl-1H-benzo[d][1,2,3]triazol-6-yl)-N-(2-oxaspiro[3.5]nonan-7-yl)-7H-pyrrolo[2,3-d]pyrimidin-2-amine] |
| 7.86 | CN1CCC(Oc2cnc3ccc(-c4c[nH]c5nc(N)ncc45)cc3n2)CC1 [Compound 1994, 5-(3-((1-Methylpiperidin-4-yl)oxy)quinoxalin-6-yl)-7H-pyrrolo[2,3-d]pyrimidin-2-amine] |
| 6.71 | COc1nc(N[C@H]2CC[C@@H](OC(F)F)CC2)nc2[nH]cc(-c3cc(F)c4nccn4c3)c12 [Compound 2258, N-(cis-4-(Difluoromethoxy)cyclohexyl)-5-(8-fluoroimidazo[1,2-a]pyridin-6-yl)-4-methoxy-7H-pyrrolo[2,3-d]pyrimidin-2-amine] |
| 8.72 | CNc1nc(NC2CCC3(CC2)COC3)nc2[nH]cc(-c3ccn4nccc4n3)c12 [Compound 3461, N^4-Methyl-5-(pyrazolo[1,5-a]pyrimidin-5-yl)-N^2-(2-oxaspiro[3.5]nonan-7-yl)-7H-pyrrolo[2,3-d]pyrimidine-2,4-diamine] |
